Reference: patent publication US20250051363A1, “Substituted Pyrazolopyridines” (Neuro3 Therapeutics, Inc., priority 2023, published 2025)
Counter-ions that a name gives are not always drawn.

These compounds were tested against LRRK2 wild-type (Homo sapiens (Human), UniProt Q5S007) (assay: LanthaScreen LRRK2 Biochemical Activity Assay). Settings: human recombinant LRRK2 (amino acids 970-2527) wild-type, ATP 57 μM, TR-FRET; read-out: IC50 (nM), inhibition of LRRK2 wild-type kinase activity.
Sequence of LRRK2 wild-type (Q5S007 970-2527): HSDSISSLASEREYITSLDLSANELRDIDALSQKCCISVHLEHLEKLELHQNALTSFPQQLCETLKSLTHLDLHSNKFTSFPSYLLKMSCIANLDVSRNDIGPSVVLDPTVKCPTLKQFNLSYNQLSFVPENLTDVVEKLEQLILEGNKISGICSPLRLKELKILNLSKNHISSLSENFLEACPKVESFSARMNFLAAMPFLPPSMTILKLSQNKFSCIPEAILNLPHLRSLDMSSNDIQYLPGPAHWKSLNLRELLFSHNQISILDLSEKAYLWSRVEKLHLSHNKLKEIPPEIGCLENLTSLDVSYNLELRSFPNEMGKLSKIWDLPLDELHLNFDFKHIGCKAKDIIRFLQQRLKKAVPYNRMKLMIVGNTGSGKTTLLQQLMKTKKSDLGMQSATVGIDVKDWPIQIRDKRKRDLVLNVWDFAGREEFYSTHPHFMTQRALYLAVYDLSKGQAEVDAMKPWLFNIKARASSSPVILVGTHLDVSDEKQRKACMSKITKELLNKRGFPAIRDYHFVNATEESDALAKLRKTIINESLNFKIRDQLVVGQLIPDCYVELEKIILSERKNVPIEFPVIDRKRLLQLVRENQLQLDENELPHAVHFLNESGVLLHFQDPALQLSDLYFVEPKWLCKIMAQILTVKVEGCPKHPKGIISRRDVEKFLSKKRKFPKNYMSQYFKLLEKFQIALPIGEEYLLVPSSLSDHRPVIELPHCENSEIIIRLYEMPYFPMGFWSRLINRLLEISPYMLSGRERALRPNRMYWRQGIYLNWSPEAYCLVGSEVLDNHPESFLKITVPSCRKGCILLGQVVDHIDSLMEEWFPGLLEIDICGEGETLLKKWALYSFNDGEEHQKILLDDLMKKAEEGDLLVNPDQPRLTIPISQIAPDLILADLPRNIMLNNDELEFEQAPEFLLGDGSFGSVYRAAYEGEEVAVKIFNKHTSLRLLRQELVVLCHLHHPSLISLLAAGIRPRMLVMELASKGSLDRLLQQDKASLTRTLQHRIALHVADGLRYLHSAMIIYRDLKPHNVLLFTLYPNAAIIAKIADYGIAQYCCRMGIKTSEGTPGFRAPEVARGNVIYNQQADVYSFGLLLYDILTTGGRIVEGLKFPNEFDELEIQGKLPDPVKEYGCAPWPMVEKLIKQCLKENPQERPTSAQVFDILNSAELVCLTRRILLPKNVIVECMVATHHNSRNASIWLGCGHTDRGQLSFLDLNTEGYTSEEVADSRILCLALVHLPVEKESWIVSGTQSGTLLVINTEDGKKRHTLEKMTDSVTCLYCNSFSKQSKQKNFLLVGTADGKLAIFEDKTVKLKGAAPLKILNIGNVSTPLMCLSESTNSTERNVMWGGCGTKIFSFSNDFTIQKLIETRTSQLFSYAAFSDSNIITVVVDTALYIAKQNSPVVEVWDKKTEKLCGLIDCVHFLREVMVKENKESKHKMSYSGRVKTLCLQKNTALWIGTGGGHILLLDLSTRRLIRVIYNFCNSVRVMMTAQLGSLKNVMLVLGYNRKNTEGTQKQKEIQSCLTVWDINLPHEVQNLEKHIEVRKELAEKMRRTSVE
Procedure: The ability of a compound of Formula (I) to inhibit LRRK2 kinase activity is measured using a LanthaScreen™ kinase activity assay. In general, in a LanthaScreen™ kinase activity assay, kinase, fluorescein-labeled substrate, and ATP are allowed to react. Then EDTA (to stop the reaction) and terbium-labeled antibody (to detect phosphorylated product) are added. In a LanthaScreen™ kinase reaction, the antibody associates with the phosphorylated fluorescein labeled substrate resulting in an increased TR-FRET value. The TR-FRET value is a dimensionless number that is calculated as the ratio of the acceptor (fluorescein) signal to the donor (terbium) signal. The amount of antibody that is bound to the tracer is directly proportional to the amount of phosphorylated substrate present, and in this manner, kinase activity can be detected and measured by an increase in the TR-FRET value. Accordingly, in this Example, enzyme reactions are carried out in a kinase reaction buffer in the presence or absence of representative compounds of Formula (I) at various concentrations in 384-well plate at room temperature for 60 minutes. The kinase reaction buffer contains human recombinant LRRK2 protein (amino acids 970-2527, 5 nM), ATP (57 μM for LRRK2 wild-type, 134 μM for G2019S mutant protein), Fluorescein-LRRKtide substrate (0.4 mM), 50 mM Tris pH 7.5, 10 mM MgCl2, 1 mM EGTA, 0.01% Brij™-35, and 2 mM DTT. The final reaction volume for each reaction is 10 μL. The reactions are initated by adding the substrate and stopped by the addition of 10 μL of a TR-FRET dilution buffer supplemented with a kinase quench buffer (10 mM EDTA final) and Tb-anti-pLRRKtide (2 nM final). The plate is further incubated at room temperature for another 60 minutes, and the fluorescent signals are read on an EnVision® multilabel plate reader (PerkinElmer, Waltham, MA) with excitation at 340 nm and emission at 495 and 520 nm. The assay signal is determined as a ratio of FRET-specific signal measured with emission filter at 520 nm to that of the signal measured with Tb-specific emission filter at 495 nm. IC50 values for compound-mediated enzyme inhibition are calculated using appropriate programs in GraphPad Prism software by plotting the logarithm of the compound concentrations versus percent inhibition. All reagents are purchased from Thermo Fisher Scientific.
Clc1ccn2ncc(-c3cccc(N4CCNCC4)n3)c2c1 [Example 42, 5-chloro-3-(6-piperazin-1-yl-2-pyridyl)pyrazolo[1,5-a]pyridine] showed an IC50 of 11 to 100 nM. C[C@H]1CN(c2cccc(-c3cnn4ccccc34)n2)CCN1 [Example 70, (S)-3-(6-(3-methylpiperazin-1-yl)pyridin-2-yl)pyrazolo[1,5-a]pyridine formate] showed an IC50 of 11 to 100 nM. In the case of O=C(Cc1cccnc1)Nc1ccn2ncc(-c3cccc(C4CCCNC4)n3)c2c1 (stereo not shown) [Example 78, N-(3-(6-(piperidin-3-yl)pyridin-2-yl)pyrazolo[1,5-a]pyridin-5-yl)-2-(pyridin-3-yl)acetamide], the IC50 is reported as 11 to 100 nM. Fc1cc(-c2cnn3ccccc23)nc(C2CCCNC2)c1 (stereo not shown) [Example 31, 3-[4-fluoro-6-(3-piperidyl)-2-pyridyl]pyrazolo[1,5-a]pyridine] showed an IC50 of 101 to 400 nM. Work on O=C(CNc1cccnc1)Nc1ccn2ncc(-c3cccc(C4CCCNC4)n3)c2c1 (stereo not shown) [Example 80, N-(3-(6-(piperidin-3-yl)pyridin-2-yl)pyrazolo[1,5-a]pyridin-5-yl)-2-(pyridin-3-ylamino)acetamide] yielded an IC50 of 11 to 100 nM. O=C(COc1ccncc1)Nc1ccn2ncc(-c3cccc(C4CCCNC4)n3)c2c1 (stereo not shown) [Example 76, N-(3-(6-(piperidin-3-yl)pyridin-2-yl)pyrazolo[1,5-a]pyridin-5-yl)-2-(pyridin-4-yloxy)acetamide] showed an IC50 of 11 to 100 nM. In the case of CNc1ccn2ncc(-c3cc(Cl)cc(C4CCCNC4)n3)c2c1 (stereo not shown) [Example 62, 3-[4-chloro-6-(3-piperidyl)-2-pyridyl]-N-methyl-pyrazolo[1,5-a]pyridin-5-amine], the IC50 is reported as 11 to 100 nM. In the case of O=C(CNc1ccncc1)Nc1ccn2ncc(-c3cccc(C4CCCNC4)n3)c2c1 (stereo not shown) [Example 79, N-(3-(6-(piperidin-3-yl)pyridin-2-yl)pyrazolo[1,5-a]pyridin-5-yl)-2-(pyridin-4-ylamino)acetamide], the IC50 is reported as 11 to 100 nM. With CNc1ccn2ncc(-c3cccc(C4CCCNC4)n3)c2c1 (stereo not shown) [Example 20, N-methyl-3-[6-(3-piperidyl)-2-pyridyl]pyrazolo[1,5-a]pyridin-5-amine] the IC50 was ≤ 10 nM. With Clc1cc(-c2cnn3ccc(Cl)cc23)nc(N2CCNCC2)c1 [Example 43, 5-chloro-3-(4-chloro-6-piperazin-1-yl-2-pyridyl)pyrazolo[1,5-a]pyridine] the IC50 was 11 to 100 nM. In the case of c1cc(-c2cnn3ccc(N4CCOCC4)cc23)nc(C2CCCNC2)c1 (stereo not shown) [Example 16, 4-[3-[6-(3-piperidyl)-2-pyridyl]pyrazolo[1,5-a]pyridin-5-yl]morpholine], the IC50 is reported as 101 to 400 nM. Compound CS(=O)(=O)CC(=O)Nc1ccn2ncc(-c3cccc(C4CCCNC4)n3)c2c1 (stereo not shown) [Example 67, 2-(methylsulfonyl)-N-(3-(6-(piperidin-3-yl)pyridin-2-yl)pyrazolo[1,5-a]pyridin-5-yl)acetamide] has an IC50 of 11 to 100 nM. In the case of Fc1cc(-c2cnn3ccc(Cl)cc23)nc(C2CCCNC2)c1 (stereo not shown) [Example 35], the IC50 is reported as 11 to 100 nM. For C[C@@H]1CN(c2cccc(-c3cnn4ccc(Cl)cc34)n2)C[C@H](C)N1 [Example 57, 5-chloro-3-[6-[(3R,5S)-3,5-dimethylpiperazin-1-yl]-2-pyridyl]pyrazolo[1,5-a]pyridine], the IC50 was ≤ 10 nM. Clc1cc(-c2cnn3ccc(Cl)cc23)nc(N2CC3CC(C2)N3)c1 [Example 47, 5-chloro-3-[4-chloro-6-(3,6-diazabicyclo[3.1.1]heptan-3-yl)-2-pyridyl]pyrazolo[1,5-a]pyridine] gave an IC50 of 101 to 400 nM. Work on c1cc(-c2cnn3ccc(OCC4CC4)cc23)nc(C2CCCNC2)c1 (stereo not shown) [Example 14, 5-(cyclopropylmethoxy)-3-[6-(3-piperidyl)-2-pyridyl]pyrazolo[1,5-a]pyridine] yielded an IC50 of 101 to 400 nM. Clc1ccn2ncc(-c3cccc([C@@H]4CCCNC4)n3)c2c1 (single isomer, unassigned) [Example 6, (+)-5-chloro-3-(6-(piperidin-3-yl)pyridin-2-yl)pyrazolo[1,5-a]pyridine] showed an IC50 of 101 to 400 nM. CS(=O)(=O)NCC(=O)Nc1ccn2ncc(-c3cccc(C4CCCNC4)n3)c2c1 (stereo not shown) [Example 68, 2-(methylsulfonamido)-N-(3-(6-(piperidin-3-yl)pyridin-2-yl)pyrazolo[1,5-a]pyridin-5-yl)acetamide] was tested, and the IC50 was 11 to 100 nM. For Cc1ccn2ncc(-c3cccc(C4CCCNC4)n3)c2c1 (stereo not shown) [Example 9, 5-methyl-3-[6-(3-piperidyl)-2-pyridyl]pyrazolo[1,5-a]pyridine], the IC50 was 11 to 100 nM. Work on FC(F)(F)c1ccn2ncc(-c3cc(Cl)cc(C4CCCNC4)n3)c2c1 (stereo not shown) [Example 36, 3-(4-chloro-6-(piperidin-3-yl)pyridin-2-yl)-5-(trifluoromethyl)pyrazolo[1,5-a]pyridine] yielded an IC50 of 11 to 100 nM. C[C@@H]1CN(c2cc(F)cc(-c3cnn4ccccc34)n2)C[C@H](C)N1 [Example 52, 3-[6-[(3R,5S)-3,5-dimethylpiperazin-1-yl]-4-fluoro-2-pyridyl]pyrazolo[1,5-a]pyridine] was tested, and the IC50 was 11 to 100 nM. With N#CCC(=O)Nc1ccn2ncc(-c3cccc(C4CCCNC4)n3)c2c1 (stereo not shown) [Example 77, 2-cyano-N-(3-(6-(piperidin-3-yl)pyridin-2-yl)pyrazolo[1,5-a]pyridin-5-yl)acetamide] the IC50 was 11 to 100 nM. Clc1ccn2ncc(-c3cccc(C4CCCNC4)n3)c2c1 (racemic) [Example 5, Rac-5-chloro-3-[6-(3-piperidyl)-2-pyridyl]pyrazolo[1,5-a]pyridine] gave an IC50 of 11 to 100 nM. In the case of C[C@@H]1CN(c2ccc(Cl)c(-c3cnn4ccc(Cl)cc34)n2)C[C@H](C)N1 [Example 63, 5-chloro-3-[3-chloro-6-[(3S,5R)-3,5-dimethylpiperazin-1-yl]-2-pyridyl]pyrazolo[1,5-a]pyridine], the IC50 is reported as ≤ 10 nM. FC(F)(F)c1ccn2ncc(-c3cc(Cl)cc(N4CCNCC4)n3)c2c1 [Example 41, 3-(4-chloro-6-piperazin-1-yl-2-pyridyl)-5-(trifluoromethyl) pyrazolo[1,5-a]pyridine] gave an IC50 of 11 to 100 nM. CS(=O)(=O)N1CCCC(c2cccc(-c3cnn4ccccc34)n2)C1 (stereo not shown) [Example 26, 3-[6-(1-methylsulfonyl-3-piperidyl)-2-pyridyl]pyrazolo[1,5-a]pyridine] gave an IC50 of 101 to 400 nM. With C[C@@H]1CN(c2cccc(-c3cnn4ccc(C(F)(F)F)cc34)n2)C[C@H](C)N1 [Example 55, 3-[6-[(3S,5R)-3,5-dimethylpiperazin-1-yl]-2-pyridyl]-5-(trifluoromethyl)pyrazolo[1,5-a]pyridine] the IC50 was ≤ 10 nM. With C[C@@H]1CN(c2cc(Cl)cc(-c3cnn4ccc(Cl)cc34)n2)C[C@H](C)N1 [Example 59, 5-chloro-3-[4-chloro-6-[(3S,5R)-3,5-dimethylpiperazin-1-yl]-2-pyridyl]pyrazolo[1,5-a]pyridine] the IC50 was ≤ 10 nM. Fc1ccc(C2CCCNC2)nc1-c1cnn2ccccc12 (stereo not shown) [Example 32, 3-[3-fluoro-6-(3-piperidyl)-2-pyridyl]pyrazolo[1,5-a]pyridine] was tested, and the IC50 was 11 to 100 nM. Work on C[C@@H]1CN(c2cccc(-c3cnn4ccccc34)n2)C[C@H](C)N1 [Example 49, 3-[6-[(3S,5R)-3,5-dimethylpiperazin-1-yl]-2-pyridyl]pyrazolo[1,5-a]pyridine] yielded an IC50 of 11 to 100 nM. In the case of Clc1ccn2ncc(-c3cccc([C@H]4CCCNC4)n3)c2c1 (single isomer, unassigned) [Example 7, (−)-5-chloro-3-(6-(piperidin-3-yl)pyridin-2-yl)pyrazolo[1,5-a]pyridine], the IC50 is reported as ≤ 10 nM.
